Experimental data as given in patent EP1095650A1, “Double phase time-controlled release system” (Universiteit Leiden, priority 1999, dated 2001).

Assay: Dissolution / release profile of BAEE from the delivery system (USP XXIII dissolution paddle apparatus)
Assay type: physicochemical
Details: PBS pH 7.2, 37±1°C, 100 rpm
Description: The dissolution of a coated and a non-coated delivery system according to the present invention was investigated by using the standard USP XXIII dissolution paddle apparatus. The paddle speed was 100 rpm and the dissolution medium was phosphate buffer solution (PBS) pH 7.2 at 37±1°C. PBS was prepared according to the method of USP XXIII. Three replicates for each sample were tested at specific interval times and their mean percent release was calculated.
Two release patterns of example 1, showing the release profiles of BAEE from the system with and without a gelatin enteric coating (capsule) are depicted in Figures 6 and 7, respectively.
Data are expressed as mean ± standard deviation (SD, n=6). (Standard USP XXIII dissolution apparatus is used with Phosphate Buffer Solution (PBS) pH = 7.2 as a dissolution medium. Temperature was 37±1°C and paddle speed was 100 rpm).
Data are expressed as mean ±SD (n=6). (Standard USP XXIII dissolution apparatus is used with PBS pH = 7.2 as a dissolution medium. Temperature was 37±1°C and paddle speed was 100 rpm).

CCOC(=O)[C@H](CCCN=C(N)N)NC(=O)c1ccccc1 [BAEE, N-α-benzoyl-L-arginine ethylester]
lag time (system of Example 1 inserted in gelatin capsule and enteric-coated (Figure 7), compared with non-coated system): increased
amount of drug released after the lag time (system of Example 1 not inserted in gelatin capsule (Figure 6), within a short period of time): whole amount of drug is released
